Source: patent US20200399308A1, “COMPOUNDS AND METHODS FOR ELICITING ANTIMICROBIAL ACTIVITY” (Technion Research & Development Foundation Limited, priority 2018, published 2020)
Non-standard residues stand in square brackets, D forms with d. Residues, ends and D or L forms follow the SMILES beside them. *: point of attachment. 12Ado = NCCCCCCCCCCCC(=O)O; Decanoyl = CCCCCCCCCC(=O)*; Orn = NCCC[CH](N)C(=O)O

Legend:
[1] = Critical aggregation concentration by light scattering in PBS; type: physicochemical; details: light scattering in phosphate-buffered saline
Experimental: Organization of the compounds in aqueous solution was assessed by light-scattering measurements in phosphate buffered saline (PBS; 10 mM Na2HPO4, 150 mM NaCl, pH=7.0). Hemolytic assays were performed as described elsewhere, using fresh mouse red blood cells.
The mean value (±SD) is shown for Compound C; Minimum inhibitory concentration (MIC) of compounds required to inhibit bacterial proliferation after overnight incubation.

E. coli 25922 = test: Outer-membrane damage assay (NPN uptake); type: cell-based, Escherichia coli; details: sub-MIC concentrations
Experimental: 1-N-phenylnaphthylamine (NPN) uptake (manifested as fluorescence) reflects outer-membrane damage because normally bacteria are able to exclude hydrophobic substances. As described elsewhere, E. coli 25922 was grown to the mid-logarithmic phase of growth (OD=0.4-0.6 at 600 nm), centrifuged, and resuspended in 5 mM HEPES buffer containing 5 mM glucose to OD 0.5. Next, […] of NPN solution (0.2 mM) was added to every milliliter bacteria suspension. Using black 96-well plates, […] of bacteria suspension was mixed with […] of test compound at the desired concentration and the fluorescence immediately monitored (excitation 360 nm, emission 460 nm) for up to 10 min. Data were obtained from at least 2 independent experiments performed in triplicate.
(FU denotes fluorescence units; triangles denote Compound B, circles denote PMB, squares denote untreated control; error bars=SD).

For CCCCCCCCCC(=O)NC(CCCN)C(=O)NC(CCCN)C(=O)NCCCCCCCCCCCC(=O)NC(CCCN)C(N)=O (centres unmarked) [Compound B] (Decanoyl-[Orn][Orn][12Ado][Orn]-NH2; configuration not given here), the “CAC, critical aggregation concentration” value [1] was >100 µM and the “OM permeabilization (NPN fluorescence)” value (E. coli 25922) was “rapidly caused a dose-dependent increase in fluorescence”.
